From patent US10494357B2, “Tocotrienol derivatives, pharmaceutical composition and method of use in 5-lipoxygenase related diseases” (UNIVERSITÉ D'ANGERS, priority 2015, dated 2019)
Where two headings read alike, the source gives them in different places.

Legend:
[1] = system: 5-LO product formation in neutrophils; assay: 5-LO product formation in neutrophils; type: cell-based, human; settings: for IC50: Homo sapiens, Neutrophil; for 5-LO product formation in neutrophils (A23187) residual activities [% vehicle control]: A23187 alone; for 5-LO product formation in neutrophils (AA + A23187) residual activities [% vehicle control]: A23187 plus 20 μM AA
Protocol: Freshly isolated neutrophils (1×10^7/ml) were pre-incubated with the test compounds for 15 min at 37° C. Then, 5-LO product formation was started by addition of 2.5 μM Ca^2+-ionophore A23187 alone or A23187 plus 20 μM arachidonic acid (AA). The reaction was stopped after 10 min at 37° C. with 1 ml of methanol. Major 5-LO metabolites (LTB4 and its all-trans isomers and 5-H(P)ETE) were extracted and analyzed by HPLC as described (Werz: Blood 2002, 99, 1044-1052). Cysteinyl-LTs C4, D4 and E4 and oxidation products of LTB4 were not determined.

human recombinant 5-LO = biological target: T1, human recombinant 5-LO (Homo sapiens, UniProt P09917); assay: Human recombinant 5-LO activity; type: biochemical
T1 construct: made in house; inferred to be the same preparation
T1 sequence (P09917 1-674): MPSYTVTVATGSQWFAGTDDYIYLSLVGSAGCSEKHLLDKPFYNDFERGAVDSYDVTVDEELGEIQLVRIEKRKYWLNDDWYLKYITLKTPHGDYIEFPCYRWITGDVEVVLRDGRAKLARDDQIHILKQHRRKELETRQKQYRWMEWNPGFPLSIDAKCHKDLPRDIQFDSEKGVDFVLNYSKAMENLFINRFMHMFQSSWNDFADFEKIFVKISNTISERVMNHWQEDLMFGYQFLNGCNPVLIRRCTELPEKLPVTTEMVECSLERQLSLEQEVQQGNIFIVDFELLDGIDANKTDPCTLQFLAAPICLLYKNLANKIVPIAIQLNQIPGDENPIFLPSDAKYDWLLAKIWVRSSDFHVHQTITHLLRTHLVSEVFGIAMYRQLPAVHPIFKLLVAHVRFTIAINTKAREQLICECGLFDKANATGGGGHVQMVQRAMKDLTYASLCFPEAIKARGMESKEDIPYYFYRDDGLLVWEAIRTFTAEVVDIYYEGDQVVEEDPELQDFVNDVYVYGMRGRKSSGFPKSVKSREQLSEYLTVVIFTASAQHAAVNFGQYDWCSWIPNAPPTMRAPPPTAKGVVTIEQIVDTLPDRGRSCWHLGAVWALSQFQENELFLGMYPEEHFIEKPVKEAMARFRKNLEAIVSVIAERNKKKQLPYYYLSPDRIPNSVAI
Protocol: Methods for measuring the 5-LO activity are well-known from the skilled artisan. An example of such a method is disclosed in the Examples.
Human recombinant 5-LO was pre-incubated with the test compounds for 10 min at 4° C. and pre-warmed for 30 s at 37° C. 5-LO product formation was initiated by addition of 2 mM CaCl2 and 20 μM arachidonic acid. After 10 min at 37° C., the reaction was terminated by addition of 1 ml ice-cold methanol.

LTC4 formation = assay: Zymosan-induced peritonitis in mice, LTC4 level in peritoneal exudate; type: in vivo; settings: 10 mg/kg i.p. 30 min before zymosan, measured 30 min after zymosan injection
Protocol: Zymosan was used to trigger peritonitis in mice pre-treated with a-amplexichromanol or Zileuton, each at a dose of 10 mg/kg. The resulting LTC4 levels in the peritoneal exudate were measured 30 min after zymosan injection.
α-amplexichromanol (10 mg/kg) or vehicle (0.5 ml of 0.9% saline solution containing 2% DMSO) were given i.p. 30 min before zymosan i.p. injection (0.5 ml of a 2 mg/ml suspension in 0.9% w/v saline). Mice were killed by inhalation of CO2 at the indicated time points followed by a peritoneal lavage with 3 ml of cold PBS pH 7.4. Exudates were collected. After centrifugation of the exudates (18,000× g, 5 min, 4° C.), the amounts of cysteinyl-LTs were analyzed in the supernatant by enzyme immunoassay (Enzo Life Sciences GmbH, Lörrach, Germany) according to manufacturer's instructions.

HepaRG® cells = assay: Hepatotoxicity assay; type: cell-based; settings: 48 h
Protocol: HepaRG® cells were seeded at a density of 2.6×10^4 cells/cm^2 in Williams' E medium supplemented with 2 mM glutamax, 100 U/mL penicillin, 100 μg/mL streptomycin, 10% Hyclone fetal calf serum, 5 μg/mL insulin, and […] hydrocortisone hemisuccinate. At confluence, after 2 weeks, HepaRG® cells were shifted to the same medium supplemented with 1.7% dimethyl sulfoxide for 2 additional weeks in order to obtain confluent differentiated cultures containing equal proportions of hepatocyte-like and progenitors/primitive biliary-like cell. These differentiated hepatic cell cultures were used for analytical assays.
Then, the cells were exposed to a tocotrienol derivative in Williams' E medium supplemented with 2% Hyclone fetal calf serum containing 0.2% dimethyl sulfoxide during 48 h.

TNF-α = TNF-α release from LPS-stimulated monocytes (ELISA); type: cell-based; settings: LPS 10 ng/ml
Protocol: (§1) First, different concentrations of δ-amplexichromanol (0.1; 1 and 10 μM) were added to the stimulated monocytes.
(§2) Secondly, monocytes were stimulated with lipopolysaccharide (LPS, 10 ng/ml for 4-18 h) for inducing the formation of pro-inflammatory cytokines.
(§3) Finally, the resulting levels of proinflammatory cytokines were measured by ELISA. Dexamethasone (1 μM) was used as control.

IL-1β = IL-1β release from LPS-stimulated monocytes (ELISA); type: cell-based; settings: LPS 10 ng/ml
Protocol: as §1, §2, §3

IL-8 = IL-8 release from LPS-stimulated monocytes (ELISA); type: cell-based; settings: LPS 10 ng/ml
Protocol: as §1, §2, §3

[2] = human recombinant 5-LO, read-out: IC50 (nM) 5-LO activity

| IC50 [1] [nM] | IC50 (human recombinant 5-LO; [2]) [nM] | SMILES | Number of cells (HepaRG® cells; 0.1 μM) | Number of cells (HepaRG® cells; 1 μM) | Number of cells (HepaRG® cells; 10 μM) | further results |
| --- | --- | --- | --- | --- | --- | --- |
| 19 ± 4 | 106 ± 29 | C/C(=C\CC/C(C)=C/CCC1(C)CCc2c(C)c(O)c(C)c(C)c2O1)CCC=C(CO)CO (centres unmarked) [Compound 1, 2-((4E,8E)-11-(6-hydroxy-2,5,7,8-tetramethylchroman-2-yl)-4,8-dimethylundeca-4,8-dien-1-ylidene)propane-1,3-diol] | 4389 | 4705 | 4702 | LTC4 level in the peritoneal exudate (LTC4 formation): the same than the LTC4 level obtained by Zileuton |
| 220 ± 40 | 137 ± 29 | C/C(=C/CC/C(C)=C/CC/C(C)=C/CCC1(C)CCc2cc(O)cc(C)c2O1)CO (centres unmarked) [Compound 23, 2-((3E,7E,11Z)-13-hydroxy-4,8,12-trimethyltrideca-3,7,11-trien-1-yl)-2,8-dimethylchroman-6-ol] | – | – | – | – |
| 140 ± 21 | 120 ± 29 | C/C(=C/CC/C(C)=C/CC/C(C)=C/CCC1(C)CCc2cc(O)c(C)c(C)c2O1)CO (centres unmarked) [Compound 33, 2-((3E,7E,11Z)-13-hydroxy-4,8,12-trimethyltrideca-3,7,11-trien-1-yl)-2,7,8-trimethylchroman-6-ol] | 4363 | 4412 | 4610 | – |
| 67 ± 54 | 110 | C/C(=C\CC/C(C)=C/CCC1(C)CCc2cc(O)c(C)c(C)c2O1)CCC=C(CO)CO (centres unmarked) [Compound 34, 2-((4E,8E)-11-(6-hydroxy-2,7,8-trimethylchroman-2-yl)-4,8-dimethylundeca-4,8-dien-1-ylidene)propane-1,3-diol] | 4212 | 4562 | 4677 | – |

Continued, compound first:

| SMILES | IC50 [1] [nM] | IC50 (human recombinant 5-LO; [2]) [nM] | Number of cells (HepaRG® cells; 0.1 μM) | Number of cells (HepaRG® cells; 1 μM) | Number of cells (HepaRG® cells; 10 μM) | further results |
| --- | --- | --- | --- | --- | --- | --- |
| CC(=O)N(O)C/C=C/c1cccc(Oc2ccccc2)c1 [BWA4C, N-RE)-3-(3-phenoxyphenye-prop-2-enyllacetohydroxamic acid, reference compound] | 41 ± 1 | – | – | – | – | – |
| C/C(=C\CC/C(C)=C/CCC1(C)CCc2c(C)c(O)cc(C)c2O1)CCC=C(CO)CO (centres unmarked) [Compound 9, 2-((4E,8E)-11-(6-hydroxy-2,5,8-trimethylchroman-2-yl)-4,8-dimethylundeca-4,8-dien-1-ylidene)propane-1,3-diol] | 114 ± 35 | – | 4429 | 4436 | 4785 | IC50 (human recombinant 5-LO): 91 ± 15 nM |
| C/C(=C\CC/C(C)=C/CCC1(C)CCc2cc(O)cc(C)c2O1)CCC=C(CO)CO (centres unmarked) [Compound 26, 2-((4E,8E)-11-(6-hydroxy-2,8-dimethylchroman-2-yl)-4,8-dimethylundeca-4,8-dien-1-ylidene)propane-1,3-diol] | 419 ± 33 | 148 ± 35 | – | – | – | TNF-α release (%) (TNF-α; 1 μM): n.i.^a; IL-1β release (%) (IL-1β; 1 μM): 86 ± 11%; IL-8 release (%) (IL-8; 1 μM): n.i.^a; 5-LO product formation in neutrophils (A23187) residual activities [% vehicle control] ([1]; 0.1 μM): 17.4 ± 8.8 % vehicle control; 5-LO product formation in neutrophils (AA + A23187) residual activities [% vehicle control] ([1]; 0.1 μM): n.i.^a; 5-LO product formation in neutrophils (A23187) residual activities [% vehicle control] ([1]; 1 μM): 10.0 ± 2.8 % vehicle control; 5-LO product formation in neutrophils (AA + A23187) residual activities [% vehicle control] ([1]; 1 μM): 15.4 ± 4.4 % vehicle control; 5-LO product formation in neutrophils (A23187) residual activities [% vehicle control] ([1]; 10 μM): 0.0 ± 0.0 % vehicle control; 5-LO product formation in neutrophils (AA + A23187) residual activities [% vehicle control] ([1]; 10 μM): 0.6 ± 0.6 % vehicle control |
| CC(c1cc2ccccc2s1)N(O)C(N)=O (centres unmarked) [Zileuton, reference compound] | – | – | 4313 | 4244 | 4554 | – |
| C[C@@H]1C[C@H]2[C@@H]3CCC4=CC(=O)C=C[C@]4(C)[C@@]3(F)[C@@H](O)C[C@]2(C)[C@@]1(O)C(=O)CO [dexamethasone] | – | – | – | – | – | TNF-α release (%) (TNF-α; 1 μM): 42.2 ± 0.8%; TNF-α release (%) (TNF-α; 10 μM): 13.3 ± 2.6%; IL-1β release (%) (IL-1β; 1 μM): 68.7 ± 2.4%; IL-1β release (%) (IL-1β; 10 μM): 49.9 ± 4.8%; IL-8 release (%) (IL-8; 1 μM): 83.5 ± 3.2%; IL-8 release (%) (IL-8; 10 μM): 30.6 ± 1.5% |
